Results from a compilation of properties of binary mixtures (doi:10.1021/acs.jpcb.8b06939).

Assay: xn = mol fraction of the nth substance listed
Details: 100 kPa

O=C[C@H](O)[C@@H](O)[C@H](O)[C@H](O)CO + CC(=O)[O-].CC[n+]1ccn(C)c1
viscosity [mPa·s]
Details	x1 = 0.0095	x1 = 0.0284	x1 = 0.0474	x1 = 0.095	x1 = 0.1429
282.5 K	–	–	756	2299	–
283.3 K	–	–	–	–	7397
292.4 K	185	245	339	870	–
293.3 K	–	–	–	–	2397
302.1 K	–	–	–	–	921
303 K	100	123	165	380	–
312.5 K	61	73	97	193	–
322.6 K	38	45	58	111	207
332.2 K	28	32	39	68	–
341.3 K	–	23	–	47	–
342.5 K	20	–	29	–	77
352.1 K	15	18	21	34	53
362.3 K	13	14	16	24	38
371.7 K	11	12	13	–	28

OC[C@H]1O[C@@H](O[C@H]2[C@H](O)[C@@H](O)C(O)O[C@@H]2CO)[C@H](O)[C@@H](O)[C@@H]1O (stereo partly specified) + CC(=O)[O-].CC[n+]1ccn(C)c1
viscosity [mPa·s]
Details	x1 = 0.005	x1 = 0.0151	x1 = 0.0255	x1 = 0.0524	x1 = 0.0807
282.5 K	407	517	756	2299	–
283.3 K	–	–	–	–	7397
292.4 K	185	245	–	870	–
293.3 K	–	–	–	–	2397
303 K	100	123	165	380	–
312.5 K	–	–	97	193	419
322.6 K	38	–	58	111	–
332.2 K	28	32	–	68	–
341.3 K	–	23	–	47	–
342.5 K	–	–	29	–	77
352.1 K	15	18	21	34	53
362.3 K	13	14	16	24	38
371.7 K	11	12	13	–	28
373.1 K	–	–	–	19	–
